Experimental data as given in patent US8012980B2, “Isoquinolinone derivatives” (AstraZeneca AB, priority 2008, dated 2011).

Target: T1, human active recombinant p38 (p38α) (Homo sapiens, UniProt Q16539)
T1 construct: 6His
Assay: p38 Alpha Enzyme Assay (AlphaScreen, biotinylated-ATF2 substrate)
Type: biochemical
Settings: means of replicate determinations; pre-incubated for 4 hours at 37° C.; SD of assay between 0.2 and 0.3 log units; read-out: p38α inhibition Mean pIC50 (converted)
Experimental: The ability of the compounds of formula (I) to inhibit p38 kinase may be determined using the following biological assay:
Enzyme assays were performed in polypropylene 96 well plates. The following solutions were added to each well; 10 μL of compound dilutions in assay buffer (20 mM HEPES pH 7.4, containing 20 mM magnesium acetate, 0.005% (w/v) Tween-20, 10 mM DTT) containing 1% (v/v) DMSO or assay buffer containing 1% (v/v) DMSO alone, 70 μL of assay buffer containing 36 nM substrate (biotinylated-ATF2) and 10 μL of an appropriate dilution of human active recombinant p38-6H is tagged. Depending on batch of p38, an appropriate dilution was typically a 5 nM solution to give a final enzyme concentration of 0.5 nM. At this stage, background control wells also received 50 μL of AlphaScreen quench buffer (10 mM HEPES pH 7.4 containing 100 mM EDTA, 0.2% (w/v) bovine serum albumin). The plate was covered, pre-incubated for 4 hours at 37° C. and the enzyme reaction initiated by addition of 10 μL 1 mM ATP. After incubation for a further 45 minutes at 37° C., the reaction was stopped by addition of 50 μL quench reagent and 50 μL of the quenched reaction mixture transferred to an opaque, white 96-well plate. Detection reagent, 25 μL of 10 mM HEPES pH 7.4 containing 100 mM EDTA, 0.2% (w/v) bovine serum albumin, 0.3 nM anti phosphoATF2 antibody and 25 μg/mL of AlphaScreen protein A acceptor and donor beads' (PerkinElmer Inc.), was added to all wells in a darkened room, the plate sealed and left in the dark for at least 5 hours before AlphaScreen readings were taken using a Perkin Elmer EnVision reader. Total, uninhibited activity was determined from assays performed in each assay plate. The mean control in the absence of p38 activity was subtracted from each well. Data were expressed as percent inhibition of total activity using equation 1. Percent Inhibition=100*(1−Test/Control) Eq.1 Where . . . Test=p38 kinase activity in the presence of compound Control=p38 kinase activity in the absence of compound.
pIC50 is defined as the logarithm of the reciprocal of the concentration of compound required for 50% reduction in total p38 kinase activity.
The standard deviation of the p38 enzyme inhibition assay is between 0.2 and 0.3 log units.

T1 sequence (Q16539 whole entry): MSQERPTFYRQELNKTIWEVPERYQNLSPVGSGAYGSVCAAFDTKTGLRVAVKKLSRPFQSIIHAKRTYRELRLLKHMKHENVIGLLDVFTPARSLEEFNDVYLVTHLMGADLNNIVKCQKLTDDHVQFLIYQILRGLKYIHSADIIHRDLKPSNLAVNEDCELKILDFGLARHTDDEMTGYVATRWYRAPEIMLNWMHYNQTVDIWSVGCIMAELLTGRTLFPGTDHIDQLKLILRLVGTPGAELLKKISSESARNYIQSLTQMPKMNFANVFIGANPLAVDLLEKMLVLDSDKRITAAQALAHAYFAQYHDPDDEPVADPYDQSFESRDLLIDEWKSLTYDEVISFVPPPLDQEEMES

SMILES | IC50
Cc1c(F)cc(C(=O)NC2CC2)cc1-c1ccc2c(=O)n(CC(C)(C)CO)cc(CN3CCN(CCCO)CC3)c2c1 [Example 32, N-Cyclopropyl-3-fluoro-5-[2-(3-hydroxy-2,2-dimethylpropyl)-4-{[4-(3-hydroxypropyl)piperazin-1-yl]methyl}-1-oxo-1,2-dihydroisoquinolin-6-yl]-4-methylbenzamide] | 0.794 nM
Cc1c(F)cc(C(=O)NC2CC2)cc1-c1ccc2c(=O)n(CC3(CO)CC3)cc(CN3CCNC[C@H]3C)c2c1 [Example 33, N-Cyclopropyl-3-fluoro-5-(2-{[1-(hydroxymethyl)cyclopropyl]methyl}-4-{[(2R)-2-methylpiperazin-1-yl]methyl}-1-oxo-1,2-dihydroisoquinolin-6-yl)-4-methylbenzamide] | 0.158 nM
Cc1c(F)cc(C(=O)NC2CC2)cc1-c1ccc2c(=O)n(CC3(CO)CC3)cc(CN3CCN[C@@H](C)C3)c2c1 [Example 34, N-Cyclopropyl-3-fluoro-5-(2-{[1-(hydroxymethyl)cyclopropyl]methyl}-4-{[(3S)-3-methylpiperazin-1-yl]methyl}-1-oxo-1,2-dihydroisoquinolin-6-yl)-4-methylbenzamide] | 1 nM
Cc1c(F)cc(C(=O)NC2CC2)cc1-c1ccc2c(=O)n(CC(CO)CO)cc(CN3CCN[C@@H](C)C3)c2c1 [Example 35, N-Cyclopropyl-3-fluoro-5-(2-[3-hydroxy-2-(hydroxymethyl)propyl]-4-{[(3S)-3-methylpiperazin-1-yl]methyl}-1-oxo-1,2-dihydroisoquinolin-6-yl)-4-methylbenzamide] | 5.01 nM
Cc1c(F)cc(C(=O)NC2CC2)cc1-c1ccc2c(=O)n(CC(C)(CO)CO)cc(CN3CCN[C@@H](C)C3)c2c1 [Example 36, N-Cyclopropyl-3-fluoro-5-(2-[3-hydroxy-2-(hydroxymethyl)-2-methylpropyl]-4-{[(3S)-3-methylpiperazin-1-yl]methyl}-1-oxo-1,2-dihydroisoquinolin-6-yl)-4-methylbenzamide] | 3.16 nM
Cc1c(F)cc(C(=O)NC2CC2)cc1-c1ccc2c(=O)n(CC(C)(C)CO)cc(C(C)N3CCC(C)(N)CC3)c2c1 (stereo not shown) [Example 41, 3-{4-[1-(4-Amino-4-methylpiperidin-1-yl)ethyl]-2-(3-hydroxy-2,2-dimethylpropyl)-1-oxo-1,2-dihydroisoquinolin-6-yl}-N-cyclopropyl-5-fluoro-4-methylbenzamide] | 0.631 nM
Cc1c(F)cc(C(=O)NC2CC2)cc1-c1ccc2c(=O)n(CC(C)(C)CO)cc(C(C)N3CCC[C@@H](N)C3)c2c1 (stereo partly drawn) [Example 42, 3-[4-{1-[(3R)-3-Aminopiperidin-1-yl]ethyl}-2-(3-hydroxy-2,2-dimethylpropyl)-1-oxo-1,2-dihydroisoquinolin-6-yl]-N-cyclopropyl-5-fluoro-4-methylbenzamide] | 0.794 nM
Cc1c(F)cc(C(=O)NC2CC2)cc1-c1ccc2c(=O)n(CC(C)(C)CO)cc(C(C)N3CCCNCC3)c2c1 (stereo not shown) [Example 43, N-Cyclopropyl-3-{4-[1-(1,4-diazepan-1-yl)ethyl]-2-(3-hydroxy-2,2-dimethylpropyl)-1-oxo-1,2-dihydroisoquinolin-6-yl}-5-fluoro-4-methylbenzamide] | 0.501 nM

Next, values leading:

IC50 | SMILES
1.26 nM | Cc1c(F)cc(C(=O)NC2CC2)cc1-c1ccc2c(=O)n(CC(C)(C)CO)cc(C(C)N3CCN[C@@H](CO)C3)c2c1 (stereo partly drawn) [Example 44, N-Cyclopropyl-3-fluoro-5-[2-(3-hydroxy-2,2-dimethylpropyl)-4-{1-[(3R)-3-(hydroxymethyl)piperazin-1-yl]ethyl}-1-oxo-1,2-dihydroisoquinolin-6-yl]-4-methylbenzamide]
0.126 nM | Cc1c(F)cc(C(=O)NC2CC2)cc1-c1ccc2c(=O)n(CC(C)(C)CO)cc(C(C)N3CCN[C@@H](CO)C3)c2c1 (stereo partly drawn) [Example 45, N-Cyclopropyl-3-fluoro-5-[2-(3-hydroxy-2,2-dimethylpropyl)-4-{1-[(3R)-3-(hydroxymethyl)piperazin-1-yl]ethyl}-1-oxo-1,2-dihydroisoquinolin-6-yl]-4-methylbenzamide]
0.158 nM | Cc1c(F)cc(C(=O)NC2CC2)cc1-c1ccc2c(=O)n(CC(C)(C)CO)cc(S(=O)(=O)N3CCCNCC3)c2c1 [Example 46, N-Cyclopropyl-3-[4-(1,4-diazepan-1-ylsulfonyl)-2-(3-hydroxy-2,2-dimethylpropyl)-1-oxo-1,2-dihydroisoquinolin-6-yl]-5-fluoro-4-methylbenzamide]
0.251 nM | Cc1c(F)cc(C(=O)NC2CC2)cc1-c1ccc2c(=O)n(CC3CC3)cc(S(=O)(=O)N3CCNCC3)c2c1 [Example 47, N-Cyclopropyl-3-[2-(cyclopropylmethyl)-1-oxo-4-(piperazin-1-ylsulfonyl)-1,2-dihydroisoquinolin-6-yl]-5-fluoro-4-methylbenzamide]
0.398 nM | Cc1c(F)cc(C(=O)NC2CC2)cc1-c1ccc2c(=O)n(CC3CC3)cc(S(=O)(=O)N3CCN(C)CC3)c2c1 [Example 48, N-Cyclopropyl-3-{2-(cyclopropylmethyl)-4-[(4-methylpiperazin-1-yl)sulfonyl]-1-oxo-1,2-dihydroisoquinolin-6-yl}-5-fluoro-4-methylbenzamide]
0.501 nM | Cc1c(F)cc(C(=O)NC2CC2)cc1-c1ccc2c(=O)n(CC(C)(C)CO)cc(S(=O)(=O)N3CCN[C@@H](CO)C3)c2c1 [Example 49, N-Cyclopropyl-3-fluoro-5-[2-(3-hydroxy-2,2-dimethylpropyl)-4-{[(3R)-3-(hydroxymethyl)piperazin-1-yl]sulfonyl}-1-oxo-1,2-dihydroisoquinolin-6-yl]-4-methylbenzamide]
0.2 nM | Cc1c(F)cc(C(=O)NC2CC2)cc1-c1ccc2c(=O)n(CC3CC3)cc(S(=O)(=O)N3CCC(N)CC3)c2c1 [Example 50, 3-{4-[(4-Aminopiperidin-1-yl)sulfonyl]-2-(cyclopropylmethyl)-1-oxo-1,2-dihydroisoquinolin-6-yl}-N-cyclopropyl-5-fluoro-4-methylbenzamide]
0.1 nM | Cc1c(F)cc(C(=O)NC2CC2)cc1-c1ccc2c(=O)n(CC3CC3)cc(S(=O)(=O)N3CCCNCC3)c2c1 [Example 51, N-cyclopropyl-3-[2-(cyclopropylmethyl)-4-(1,4-diazepan-1-ylsulfonyl)-1-oxo-1,2-dihydroisoquinolin-6-yl]-5-fluoro-4-methylbenzamide]
0.2 nM | CNC1CCN(S(=O)(=O)c2cn(CC3CC3)c(=O)c3ccc(-c4cc(C(=O)NC5CC5)cc(F)c4C)cc23)CC1 [Example 52, N-cyclopropyl-3-[2-(cyclopropylmethyl)-4-{[4-(methylamino)piperidin-1-yl]sulfonyl}-1-oxo-1,2-dihydroisoquinolin-6-yl]-5-fluoro-4-methylbenzamide]
0.398 nM | Cc1c(F)cc(C(=O)NC2CC2)cc1-c1ccc2c(=O)n(CC(C)(C)CO)cc(S(=O)(=O)N3CC[C@H](N)C3)c2c1 [Example 53, 3-[4-{[(3S)-3-Aminopyrrolidin-1-yl]sulfonyl}-2-(3-hydroxy-2,2-dimethylpropyl)-1-oxo-1,2-dihydroisoquinolin-6-yl]-N-cyclopropyl-5-fluoro-4-methylbenzamide]
0.251 nM | Cc1c(F)cc(C(=O)NC2CC2)cc1-c1ccc2c(=O)n(CC(C)(C)CO)cc(S(=O)(=O)N3CC[C@@H](N)C3)c2c1 [Example 54, 3-[4-{[(3R)-3-Aminopyrrolidin-1-yl]sulfonyl}-2-(3-hydroxy-2,2-dimethylpropyl)-1-oxo-1,2-dihydroisoquinolin-6-yl]-N-cyclopropyl-5-fluoro-4-methylbenzamide]
